# From paper PMC5177531 (ACS chemical neuroscience, 2016)
# Like-named read-outs stand apart in the source and are kept apart here. Non-standard residues stand in square brackets, D forms with d. Residues, ends and D or L forms follow the SMILES beside them. Dmt = Cc1cc(O)cc(C)c1C[C@H](N)C(=O)O; Tic = O=C(O)[C@@H]1Cc2ccccc2CN1; βAla = NCCC(=O)O; Sar = CNCC(=O)O
# How the values were obtained:
# [1] = target: mMOR-1 (Mus musculus, UniProt P42866); assay: Competition binding versus 125I-IBNtxA in mMOR-CHO membranes
# [2] = target: 6TM/E11 (Mus musculus, UniProt P42866); assay: Competition binding versus 125I-IBNtxA at the 6TM-containing
# [3] = target: 125I-IDAPP binding sites in C57/Bl6 brain homogenates (Mus musculus, UniProt P42866)
# [4] = target: mKOR-1 (Mus musculus, UniProt P33534); assay: Competition binding versus 125I-IBNtxA in mKOR-CHO membranes
# [5] = target: mDOR-1 (Mus musculus, UniProt P32300); assay: Competition binding versus 125I-IBNtxA in mDOR-CHO membranes
# [6] = tested on: MOR-1 variants (Oprm1); settings: mouse, in vivo; cited from earlier work
# [7] = tested on: E1/E11 KO and E11 KO mice; settings: cited from earlier work
# [8] = tested on: C57Bl/6 wild type (WT) and exon 11 KO (E11 KO) mice; settings: cited from earlier work
# [9] = tested on: brain membranes (WT, E11 KO, E1/E11 KO); assay: 35S-GTPγS binding in brain membranes
# [10] = target: spinal cord membranes (WT, E11 KO) (Mus musculus, UniProt P42866); assay: 35S-GTPγS binding in spinal cord membranes
# [11] = tested on: C57Bl/6 wild type (WT) and exon 11 KO (E11 KO) mice; assay: Radiant heat tail flick analgesia in wild type and exon 11 KO mice; type: in vivo, mouse; settings: for analgesic ED50: tail flick
# [12] = tested on: CD-1 mice; assay: Cross tolerance in morphine pelleted mice, tail flick analgesia; type: in vivo, mouse; settings: for analgesic ED50: i.c.v., 72 hr
# [13] = tested on: MOR-1 variants (Oprm1); type: in vivo, mouse; settings: knockout and/or antisense models; Figs. 2,3,4
# [14] = target: mMOR (Mus musculus, UniProt P42866); assay: 35S-GTPγS binding in mMOR-CHO membranes; settings: read-out: Max stimulation (% over basal)
# [15] = target: mKOR (Mus musculus, UniProt P33534); assay: 35S-GTPγS binding in mKOR-CHO membranes; settings: read-out: Max stimulation (% over basal)
# [16] = target: mDOR (Mus musculus, UniProt P32300); assay: 35S-GTPγS binding in mDOR-CHO membranes; settings: read-out: Max stimulation (% over basal)
# [17] = target: 3H-DAMGO binding sites in C57 brain tissue (Mus musculus, UniProt P42866)
# [18] = target: MOR-1 (Mus musculus, UniProt P42866); assay: Competition of 3H-DAMGO binding in CHO cells expressing MOR-1
# [19] = 0.1 nM 125I-IDAPP, C57/Bl6 brain homogenates, no blockers
# [20] = E11 KO mice, supraspinal (i.c.v.; IDAPP also i.t.)
molecule,measurement,setting,value
"C[C@@H](NC(=O)[C@@H](N)Cc1ccc(O)cc1)C(=O)N[C@@H](Cc1ccccc1)C(=O)NCC(=O)N[C@@H](Cc1ccc(O)cc1)C(=O)N1CCC[C@H]1C(=O)N[C@@H](CO)C(N)=O [Dermorphin, Tyr-D-Ala-Phe-Gly-Tyr-Pro-Ser-NH2]",Ki,[1],4 ± 0.5 nM
same,Ki,[2],> 500 nM
Oc1ccc2c3c1O[C@H]1c4[nH]c5c(c4C[C@@]4(O)[C@@H](C2)N(CC2CC2)CC[C@]314)C[C@@]1(O)[C@H]2Cc3ccc(O)c4c3[C@@]1(CCN2CC1CC1)[C@H]5O4 [NorBNI],Ki,[3]; [19],> 1000 nM
"C[C@@H](NC(=O)[C@@H](N)Cc1ccc(O)cc1)C(=O)N[C@@H](Cc1ccccc1)C(=O)NCCC(N)=O [TAPA, Tyr-D-Ala-Phe-βAla-NH2] (H-Y[dA]F[βAla]-NH2)",Ki,[1],11 ± 0.3 nM
same,Ki,[2],40 ± 7 nM
same,Ki,[4],> 500 nM
same,Ki,[5],48 ± 1 nM
"C[C@@H](NC(=O)[C@@H](N)Cc1ccc(O)cc1)C(=O)N[C@@H](Cc1ccccc1)C(=O)N[C@@H](Cc1ccccc1)C(N)=O [TAPP, Tyr-D-Ala-Phe-Phe-NH2] (H-Y[dA]FF-NH2)",Ki,[1],3 ± 0.2 nM
same,Ki,[2],130 ± 16 nM
same,Ki,[4],> 500 nM
same,Ki,[5],3 ± 0.1 nM
COC(=O)[C@@H]1C[C@H](OC(C)=O)C(=O)[C@H]2[C@@]1(C)CC[C@H]1C(=O)O[C@H](c3ccoc3)C[C@]21C [Salvinorin A],MOR-1 Variants required for analgesia,[6],6TM
"O=C(N[C@@H]1CC[C@@]2(O)[C@H]3Cc4ccc(O)c5c4[C@@]2(CCN3CC2CC2)[C@H]1O5)c1cccc(I)c1 [IBNtxA, 3-iodobenzoyl-6β-naltrexamide]",MOR-1 Variants required for analgesia,[6],6TM
same,rescue of analgesia by mMOR-1G lentivirus in E1/E11 KO mice,[7],able to rescue
"CC(C)[C@H](NC(=O)[C@H](Cc1ccccc1)NC(=O)[C@H](Cc1ccccc1)NC(=O)[C@@H](C)NC(=O)[C@@H](N)Cc1ccc(O)cc1)C(N)=O [TAPPV, Tyr-D-Ala-Phe-Phe-Val-NH2] (H-Y[dA]FFV-NH2)",Ki,[1],> 500 nM
same,Ki,[2],> 500 nM
CN1CC[C@]23c4c5ccc(O)c4O[C@H]2[C@@H](O)C=C[C@H]3[C@H]1C5 [Morphine],analgesic activity in E11 KO mice,[8],maintaining full analgesic activity
Clc1cccc(Cl)c1N=C1NCCN1 [Clonidine],MOR-1 Variants required for analgesia,[6],6TM
C[C@H]1[C@H]2C(=O)c3ccc(O)cc3[C@@]1(C)CCN2CC1CC1 [Ketocyclazocine],MOR-1 Variants required for analgesia,[6],6TM
CN1CC[C@]23c4c5ccc(O)c4O[C@H]2[C@@H](O[C@@H]2O[C@H](C(=O)O)[C@@H](O)[C@H](O)[C@H]2O)C=C[C@H]3[C@H]1C5 [M6G],Hill Slope,[3],−0.6 ± 0.1
same,Ki,[3],0.7 ± 0.3 nM
"CC[C@H](C)[C@H](NC(=O)[C@H](Cc1ccccc1)NC(=O)[C@H](Cc1ccccc1)NC(=O)[C@@H](C)NC(=O)[C@@H](N)Cc1ccc(O)cc1)C(N)=O [TAPPI, Tyr-D-Ala-Phe-Phe-Ile-NH2] (H-Y[dA]FFI-NH2)",Ki,[1],0.2 ± 0.2 nM
same,Ki,[2],100 ± 10 nM
same,Ki,[5],6 ± 0.1 nM
"CC[C@H](C)[C@H](NC(=O)[C@H](Cc1ccccc1)NC(=O)[C@H](Cc1ccccc1)NC(=O)[C@@H](C)NC(=O)[C@@H](N)Cc1c(C)cc(O)cc1C)C(N)=O [DAPPI, Dmt-D-Ala-Phe-Phe-Ile-NH2] (H-[Dmt][dA]FFI-NH2)",Ki,[1],0.3 ± 0.1 nM
same,Ki,[4],7 ± 0.4 nM
same,Ki,[5],0.3 ± 0.2 nM
C=CCN1C[C@H](C)N([C@H](c2ccc(C(=O)N(CC)CC)cc2)c2cccc(OC)c2)C[C@H]1C [SNC80],Ki,[3],> 1000 nM
same,MOR-1 Variants required for analgesia,[6],7TM + 6TM
"N[C@@H](Cc1ccc(O)cc1)C(=O)N1Cc2ccccc2C[C@H]1C(=O)N[C@@H](Cc1ccccc1)C(=O)N[C@@H](Cc1ccccc1)C(=O)O [TIPP, Tyr-Tic-Phe-Phe-OH] (H-Y[Tic]FF-OH)",Ki,[1],> 500 nM
same,Ki,[2],163 ± 12 nM
same,Ki,[4],> 500 nM
DPDPE,MOR-1 Variants required for analgesia,[6],7TM + 6TM
Cc1cccc([C@H](C)c2cnc[nH]2)c1C [Dexmedetomidine],MOR-1 Variants required for analgesia,[6],6TM
"C[C@@H](NC(=O)[C@@H](N)Cc1ccc(O)cc1)C(=O)NCC(=O)N(C)[C@@H](Cc1ccccc1)C(=O)NCCO [DAMGO, [D-Ala^2,N-MePhe^4,Gly(ol)^5]-enkephalin]",Max stimulation (% over basal),[9]; E1/E11 KO,−6 ± 1 % over basal
same,EC50,[9]; E11 KO,220 ± 13 nM
same,Max stimulation (% over basal),[9]; E11 KO,19 ± 6 % over basal
same,EC50,[9]; WT,190 ± 8 nM
same,Max stimulation (% over basal),[9]; WT,15 ± 2 % over basal
same,Emax,"[10]; read-out: Max stimulation (% over basal), spinal cord, E11 KO",7 ± 4%
same,Emax,"[10]; read-out: Max stimulation (% over basal), spinal cord, WT",11 ± 2%
same,analgesic ED50,"[11]; E11 KO mice, i.c.v.",0.23 µg
same,analgesic ED50,"[11]; E11 KO mice, i.t.",0.27 µg
same,analgesic activity in E11 KO mice,"[11]; E11 KO mice, spinal (i.t.)",still elicited a full response
same,analgesic activity in E11 KO mice,[11]; [20],retained full analgesic activity
same,analgesic ED50,"[11]; WT C57Bl/6 mice, i.c.v.",0.13 µg
same,analgesic ED50,"[11]; WT C57Bl/6 mice, i.t.",0.02 µg
same,analgesic ED50,[12]; morphine pellet (75 mg free base) CD-1 mice,1.5 ± 0.47 µg
same,analgesia in morphine pelleted mice (cross tolerance),[12]; morphine pelleted versus placebo,cross tolerant with morphine
same,analgesic ED50,[12]; placebo pellet CD-1 mice,0.04 ± 0.02 µg
same,MOR-1 Variants required for analgesia,[13],7TM
same,Hill Slope,[3]; [19],−0.9 ± 0.1
same,Emax,[14],396 ± 21%
same,Emax,[15],-16 ± 8%
same,Emax,[16],-2 ± 7%
"C[C@@H](NC(=O)[C@@H](N)Cc1ccc(O)cc1)C(=O)N[C@@H](Cc1ccccc1)C(=O)N(C)CC(N)=O [TAPS, Tyr-D-Ala-Phe-Sar-NH2] (H-Y[dA]F[Sar]-NH2)",Ki,[1],6 ± 0.7 nM
same,Ki,[2],50 ± 8 nM
same,Ki,[4],> 500 nM
same,Ki,[5],35 ± 2 nM
"NC(=O)[C@H](Cc1ccccc1)NC(=O)[C@H](Cc1c[nH]c2ccccc12)NC(=O)[C@@H]1CCCN1C(=O)[C@@H](N)Cc1ccc(O)cc1 [Endomorphin 1, Tyr-Pro-Trp-Phe-NH2]",Max stimulation (% over basal),[9]; E1/E11 KO,−5 ± 3 % over basal
same,EC50,[9]; E11 KO,17 ± 7 nM
same,Max stimulation (% over basal),[9]; E11 KO,23 ± 1 % over basal
same,EC50,[9]; WT,222 ± 31 nM
same,Max stimulation (% over basal),[9]; WT,39 ± 2 % over basal
same,analgesic activity in E11 KO mice,[11]; [20],eliminated the analgesic response
same,analgesic ED50,"[11]; WT C57Bl/6 mice, i.c.v.",3.39 µg
same,MOR-1 Variants required for analgesia,[13],7TM + 6TM
same,Hill Slope,[3],−0.7 ± 0.1
same,Emax,[16],-3 ± 1%
Oc1ccc2c3c1O[C@H]1c4[nH]c5ccccc5c4C[C@@]4(O)[C@@H](C2)N(CC2CC2)CC[C@]314 [Naltrindole],Ki,[3]; [19],> 1000 nM
"C[C@@H](O)[C@H](NC(=O)[C@H]1NC(=O)[C@H]([C@@H](C)O)NC(=O)[C@H](CCCN=C(N)N)NC(=O)[C@@H](Cc2c[nH]c3ccccc23)NC(=O)[C@H](Cc2ccc(O)cc2)NC(=O)[C@@H](NC(=O)[C@H](N)Cc2ccccc2)CSSC1(C)C)C(N)=O [CTAP, D-Phe-Cys-Tyr-D-Trp-Arg-Thr-Pen-Thr-NH2]",IC50,[17],4.1 ± 0.2 nM
same,IC50,[18],4.8 ± 0.4 nM
same,Ki,[3],1.1 ± 0.3 nM
"NC(=O)[C@H](Cc1ccccc1)NC(=O)[C@H](Cc1ccccc1)NC(=O)[C@@H]1CCCN1C(=O)[C@@H](N)Cc1ccc(O)cc1 [Endomorphin 2, Tyr-Pro-Phe-Phe-NH2]",Max stimulation (% over basal),[9]; E1/E11 KO,1 ± 1 % over basal
same,EC50,[9]; E11 KO,103 ± 8 nM
same,Max stimulation (% over basal),[9]; E11 KO,24 ± 2 % over basal
same,EC50,[9]; WT,151 ± 43 nM
same,Max stimulation (% over basal),[9]; WT,35 ± 1 % over basal
same,analgesic activity in E11 KO mice,[11]; [20],eliminated the analgesic response
same,analgesic ED50,"[11]; WT C57Bl/6 mice, i.c.v.",1.14 µg
same,MOR-1 Variants required for analgesia,[13],7TM + 6TM
same,Emax,[16],-3 ± 2%
